Test results published in ChEMBL document CHEMBL1201862, “PubChem BioAssay data set” (2004).
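Each compound was tested at five concentrations against cells in 96-well plates for 48 hours. Here, GI50 denotes the concentration required for 50% inhibition of growth.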 Activity calls are given as the source filed them. No stated cut-off is given here; in the data, active = GI50 up to about 1.1 µM and inactive = higher.

Experiments:
Test in all cases: growth of human tumour cells (NCI), 48 h
SNB-78 = tested on: SNB-78
SK-MEL-5 = tested on: SK-MEL-5
IGROV-1 = tested on: IGROV-1
SW-620 = tested on: SW-620
M14 = tested on: M14
HT-29 = tested on: HT-29
ACHN = tested on: ACHN
UACC-257 = tested on: UACC-257
K562 = tested on: K562
LXFL 529 = tested on: LXFL 529
HOP-62 = tested on: HOP-62
NCI-H226 = tested on: NCI-H226
MOLT-4 = tested on: MOLT-4
UACC-62 = tested on: UACC-62
XF498 = tested on: XF498
OVCAR-4 = tested on: OVCAR-4
SK-OV-3 = tested on: SK-OV-3
U-251 = tested on: U-251

Measured: GI50

O=C1/C(=C/c2ccc(Cl)cc2)CCC1CCN1CCOCC1 (stereo unspecified)
inactive: SNB-78 > 100 µM | SK-MEL-5 55.5 µM | IGROV-1 > 100 µM | SW-620 > 100 µM | M14 > 100 µM | HT-29 32.8 µM | ACHN 60.4 µM | UACC-257 > 100 µM | K562 25.8 µM | LXFL 529 56.4 µM | HOP-62 72.1 µM | NCI-H226 > 100 µM | MOLT-4 26.1 µM | UACC-62 > 100 µM | XF498 56.6 µM | OVCAR-4 37.8 µM

COc1ccc(CN(CCN(C)C)c2ccccn2)cc1.Cn1c(=O)c2[nH]c(Br)nc2n(C)c1=O
inactive: SNB-78 > 100 µM | SK-MEL-5 > 100 µM | SK-OV-3 > 100 µM | IGROV-1 > 100 µM | SW-620 > 100 µM | M14 > 100 µM | U-251 > 100 µM | HT-29 > 100 µM | ACHN > 100 µM | UACC-257 > 100 µM | K562 94 µM | LXFL 529 > 100 µM | HOP-62 > 100 µM | MOLT-4 > 100 µM | XF498 > 100 µM

O=C1CCC2(c3ccc(F)cc3)Nc3ncccc3N12 (stereo unspecified)
inactive: SNB-78 > 100 µM | SK-MEL-5 > 100 µM | IGROV-1 > 100 µM | SW-620 > 100 µM | M14 > 100 µM | U-251 > 100 µM | HT-29 > 100 µM | ACHN > 100 µM | UACC-257 > 100 µM | K562 > 100 µM | LXFL 529 > 100 µM | HOP-62 > 100 µM | NCI-H226 > 100 µM | MOLT-4 > 100 µM | UACC-62 > 100 µM | XF498 > 100 µM | OVCAR-4 > 100 µM

Cc1cc(=O)cc2sc3c(C)cccc3nc1-2
inactive: SNB-78 53.6 µM | SK-MEL-5 17.7 µM | SK-OV-3 > 100 µM | IGROV-1 24.9 µM | SW-620 4.56 µM | M14 21.8 µM | U-251 37.1 µM | HT-29 35.1 µM | ACHN 49.1 µM | UACC-257 62.8 µM | K562 23.6 µM | LXFL 529 12.2 µM | HOP-62 95.3 µM | MOLT-4 14.4 µM | OVCAR-4 15.8 µM

O=C(CO)CC(=O)C(=O)Nc1cccc(C(F)(F)F)c1
inactive: SK-OV-3 > 100 µM | IGROV-1 > 100 µM | SW-620 > 100 µM | M14 > 100 µM | HT-29 > 100 µM | ACHN > 100 µM | UACC-257 > 100 µM | K562 > 100 µM | LXFL 529 > 100 µM | HOP-62 > 100 µM | NCI-H226 > 100 µM | MOLT-4 > 100 µM | UACC-62 > 100 µM | XF498 > 100 µM | OVCAR-4 > 100 µM

Cc1cc(=O)n(-c2cc3cccccc-3n2)[nH]1
inactive: SK-MEL-5 2.05 µM | SK-OV-3 6.31 µM | IGROV-1 2.78 µM | SW-620 3.73 µM | M14 4.42 µM | U-251 2.04 µM | HT-29 13.5 µM | ACHN 5.87 µM | UACC-257 5.15 µM | K562 2.74 µM | LXFL 529 3.79 µM | HOP-62 4.34 µM | NCI-H226 12.1 µM | MOLT-4 4.3 µM | UACC-62 2.84 µM | XF498 4.03 µM

CC12N=NNC1C(=O)NC2=O (stereo unspecified)
inactive: SNB-78 > 100 µM | SK-MEL-5 > 100 µM | SK-OV-3 > 100 µM | IGROV-1 > 100 µM | SW-620 > 100 µM | U-251 > 100 µM | HT-29 > 100 µM | ACHN > 100 µM | UACC-257 > 100 µM | K562 > 100 µM | LXFL 529 > 100 µM | HOP-62 > 100 µM | NCI-H226 > 100 µM | MOLT-4 > 100 µM | UACC-62 > 100 µM | OVCAR-4 > 100 µM

COC(=O)CCC(=O)Nc1cccc(C(F)(F)F)c1
inactive: SNB-78 > 100 µM | SK-MEL-5 > 100 µM | SK-OV-3 > 100 µM | IGROV-1 > 100 µM | SW-620 > 100 µM | M14 > 100 µM | U-251 > 100 µM | HT-29 > 100 µM | ACHN > 100 µM | UACC-257 > 100 µM | K562 > 100 µM | LXFL 529 > 100 µM | HOP-62 > 100 µM | MOLT-4 > 100 µM | UACC-62 > 100 µM | XF498 > 100 µM | OVCAR-4 > 100 µM

Cc1cc2c(C)nn(Cc3ccc(Cl)cc3Cl)c2c(C#N)c1C
inactive: SNB-78 > 100 µM | SK-OV-3 > 100 µM | IGROV-1 > 100 µM | SW-620 > 100 µM | U-251 > 100 µM | HT-29 78.5 µM | ACHN > 100 µM | UACC-257 37.8 µM | LXFL 529 82.4 µM | HOP-62 > 100 µM | NCI-H226 > 100 µM | MOLT-4 > 100 µM | UACC-62 > 100 µM | XF498 29.1 µM
